From patent publication US20220281848A1, “PYRAZOLE-SUBSTITUTED PYRROLIDINONES AS HERBICIDES” (FMC Corporation, priority 2019, published 2022)

Tested on: plants
Experiment: Test D pre-emergence, other plants of Tables D1 and D3
Format: in vivo
Settings: preemergent, 20 DAA
How it was run: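 Damage was rated visually from 0 (none) to 100 (total), at 20 DAA for pre-emergence and 15 d for post-emergence. Plants grew from safener-treated seed in a glasshouse at 24/18° C. or 20/16° C. day/night, 65% humidity, watered twice daily.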

SMILES: CN1CC(c2cc(C(F)(F)F)n(C)n2)C(C(=O)Nc2ccc(F)c(F)c2F)C1=O (racemic) [Compound 17]
- damage to plant (100=total damage to plant; 0=no damage to plant), ABUTH (rate 15): 0
- damage to plant (100=total damage to plant; 0=no damage to plant), ABUTH (rate 30): 0
- damage to plant (100=total damage to plant; 0=no damage to plant), ABUTH (rate 60): 0
- damage to plant (100=total damage to plant; 0=no damage to plant), ABUTH (rate 130): 0
- damage to plant (100=total damage to plant; 0=no damage to plant), ABUTH (rate 250): 0
- damage to plant (100=total damage to plant; 0=no damage to plant), ABUTH (rate 500): 10
- damage to plant (100=total damage to plant; 0=no damage to plant), AMARE (rate 15): 0
- damage to plant (100=total damage to plant; 0=no damage to plant), AMARE (rate 30): 0
- damage to plant (100=total damage to plant; 0=no damage to plant), AMARE (rate 60): 0
- damage to plant (100=total damage to plant; 0=no damage to plant), AMARE (rate 130): 0
- damage to plant (100=total damage to plant; 0=no damage to plant), AMARE (rate 250): 0
- damage to plant (100=total damage to plant; 0=no damage to plant), AMARE (rate 500): 0
- damage to plant (100=total damage to plant; 0=no damage to plant), BIDPI (rate 15): 0
- damage to plant (100=total damage to plant; 0=no damage to plant), BIDPI (rate 30): 0
- damage to plant (100=total damage to plant; 0=no damage to plant), BIDPI (rate 60): 0
- damage to plant (100=total damage to plant; 0=no damage to plant), BIDPI (rate 130): 0
- damage to plant (100=total damage to plant; 0=no damage to plant), BIDPI (rate 250): 0
- damage to plant (100=total damage to plant; 0=no damage to plant), BIDPI (rate 500): 0
- damage to plant (100=total damage to plant; 0=no damage to plant), BRAPL (rate 15): 20
- damage to plant (100=total damage to plant; 0=no damage to plant), BRAPL (rate 30): 60
- damage to plant (100=total damage to plant; 0=no damage to plant), BRAPL (rate 60): 80
- damage to plant (100=total damage to plant; 0=no damage to plant), BRAPL (rate 130): 80
- damage to plant (100=total damage to plant; 0=no damage to plant), BRAPL (rate 250): 80
- damage to plant (100=total damage to plant; 0=no damage to plant), BRAPL (rate 500): 90
- damage to plant (100=total damage to plant; 0=no damage to plant), CYPES (rate 15): 0
- damage to plant (100=total damage to plant; 0=no damage to plant), CYPES (rate 30): 0
- damage to plant (100=total damage to plant; 0=no damage to plant), CYPES (rate 60): 0
- damage to plant (100=total damage to plant; 0=no damage to plant), CYPES (rate 130): 0
- damage to plant (100=total damage to plant; 0=no damage to plant), CYPES (rate 250): 0
- damage to plant (100=total damage to plant; 0=no damage to plant), CYPES (rate 500): 0
- damage to plant (100=total damage to plant; 0=no damage to plant), DIGSA (rate 15): 30
- damage to plant (100=total damage to plant; 0=no damage to plant), DIGSA (rate 30): 90
- damage to plant (100=total damage to plant; 0=no damage to plant), DIGSA (rate 60): 90
- damage to plant (100=total damage to plant; 0=no damage to plant), DIGSA (rate 130): 90
- damage to plant (100=total damage to plant; 0=no damage to plant), DIGSA (rate 250): 90
- damage to plant (100=total damage to plant; 0=no damage to plant), DIGSA (rate 500): 90
- damage to plant (100=total damage to plant; 0=no damage to plant), ECHCG (rate 15): 0
- damage to plant (100=total damage to plant; 0=no damage to plant), ECHCG (rate 30): 90
- damage to plant (100=total damage to plant; 0=no damage to plant), ECHCG (rate 60): 90
- damage to plant (100=total damage to plant; 0=no damage to plant), ECHCG (rate 130): 90
- damage to plant (100=total damage to plant; 0=no damage to plant), ECHCG (rate 250): 100
- damage to plant (100=total damage to plant; 0=no damage to plant), ECHCG (rate 500): 100
- damage to plant (100=total damage to plant; 0=no damage to plant), ELEIN (rate 15): 0
- damage to plant (100=total damage to plant; 0=no damage to plant), ELEIN (rate 30): 0
- damage to plant (100=total damage to plant; 0=no damage to plant), ELEIN (rate 60): 0
- damage to plant (100=total damage to plant; 0=no damage to plant), ELEIN (rate 130): 0
- damage to plant (100=total damage to plant; 0=no damage to plant), ELEIN (rate 250): 0
- damage to plant (100=total damage to plant; 0=no damage to plant), ELEIN (rate 500): 0
- damage to plant (100=total damage to plant; 0=no damage to plant), EPHHL (rate 15): 0
- damage to plant (100=total damage to plant; 0=no damage to plant), EPHHL (rate 30): 0
- damage to plant (100=total damage to plant; 0=no damage to plant), EPHHL (rate 60): 0
- damage to plant (100=total damage to plant; 0=no damage to plant), EPHHL (rate 130): 0
- damage to plant (100=total damage to plant; 0=no damage to plant), EPHHL (rate 250): 0
- damage to plant (100=total damage to plant; 0=no damage to plant), EPHHL (rate 500): 10
- damage to plant (100=total damage to plant; 0=no damage to plant), GLXMA (rate 15): 0
- damage to plant (100=total damage to plant; 0=no damage to plant), GLXMA (rate 30): 0
- damage to plant (100=total damage to plant; 0=no damage to plant), GLXMA (rate 60): 0
- damage to plant (100=total damage to plant; 0=no damage to plant), GLXMA (rate 130): 0
- damage to plant (100=total damage to plant; 0=no damage to plant), GLXMA (rate 250): 0
- damage to plant (100=total damage to plant; 0=no damage to plant), GLXMA (rate 500): 0
- damage to plant (100=total damage to plant; 0=no damage to plant), IPOHE (rate 15): 0
- damage to plant (100=total damage to plant; 0=no damage to plant), IPOHE (rate 30): 0
- damage to plant (100=total damage to plant; 0=no damage to plant), IPOHE (rate 60): 0
- damage to plant (100=total damage to plant; 0=no damage to plant), IPOHE (rate 130): 0
- damage to plant (100=total damage to plant; 0=no damage to plant), IPOHE (rate 250): 0
- damage to plant (100=total damage to plant; 0=no damage to plant), IPOHE (rate 500): 0
- damage to plant (100=total damage to plant; 0=no damage to plant), ORYSA (rate 15): 0
- damage to plant (100=total damage to plant; 0=no damage to plant), ORYSA (rate 30): 0
- damage to plant (100=total damage to plant; 0=no damage to plant), ORYSA (rate 60): 0
- damage to plant (100=total damage to plant; 0=no damage to plant), ORYSA (rate 130): 0
- damage to plant (100=total damage to plant; 0=no damage to plant), ORYSA (rate 250): 0
- damage to plant (100=total damage to plant; 0=no damage to plant), ORYSA (rate 500): 0
- damage to plant (100=total damage to plant; 0=no damage to plant), PANMI (rate 15): 0
- damage to plant (100=total damage to plant; 0=no damage to plant), PANMI (rate 30): 0
- damage to plant (100=total damage to plant; 0=no damage to plant), PANMI (rate 60): 0
- damage to plant (100=total damage to plant; 0=no damage to plant), PANMI (rate 130): 0
- damage to plant (100=total damage to plant; 0=no damage to plant), PANMI (rate 250): 0
- damage to plant (100=total damage to plant; 0=no damage to plant), PANMI (rate 500): 0
- damage to plant (100=total damage to plant; 0=no damage to plant), SETFA (rate 15): 0
- damage to plant (100=total damage to plant; 0=no damage to plant), SETFA (rate 30): 80
- damage to plant (100=total damage to plant; 0=no damage to plant), SETFA (rate 60): 90
- damage to plant (100=total damage to plant; 0=no damage to plant), SETFA (rate 130): 90
- damage to plant (100=total damage to plant; 0=no damage to plant), SETFA (rate 250): 90
- damage to plant (100=total damage to plant; 0=no damage to plant), SETFA (rate 500): 90
- damage to plant (100=total damage to plant; 0=no damage to plant), SORVU (rate 15): 0
- damage to plant (100=total damage to plant; 0=no damage to plant), SORVU (rate 30): 0
- damage to plant (100=total damage to plant; 0=no damage to plant), SORVU (rate 60): 0
- damage to plant (100=total damage to plant; 0=no damage to plant), SORVU (rate 130): 0
- damage to plant (100=total damage to plant; 0=no damage to plant), SORVU (rate 250): 0
